Patent publication US20080287527A1, “Pharmaceuticals for treating or preventing oral diseases” (HAWLEY & HAZEL (BVI) COMPANY LIMITED, priority 2007, published 2008)

Key:
TNF-α = assay: LUMINEX analysis of TNF-α in KB cell supernatant; assay type: cell-based, human; conditions: concentration not given
Procedure: (§1) Anti-inflammatory activity was assessed using the KB cell (the epidermis cancer cell in human oral cavity). During the experiment, the KB cell inoculated in the cultivating plate was treated with or without positive control or compound 5-hydroxymorusin. After the treatment, the supernatant of the cultivating medium was collected and stored in −80° C. refrigerators. Inflammation was assessed by measuring several inflammation markers: Prostaglandin E2 (PGE2) in the supernatant was detected by Enzyme-linked immunsorbent assay, and LUMINEX™ multifunctional liquid-phase chip analysis system was used for the detection of granulocyte monocyte colony stimulating factor (GM-CSF), tumor necrosis factor-alpha (TNF-α), and interleukins 1-beta and 6 (IL-1β and IL-6).
(§2) LUMINEX™ multifunctional liquid-phase chip analyses of GM-CSF, TNF-α, IL-1 and IL-6: The 96-well plate was enclosed with enclosing liquid for 30 minutes. Fluorescent microspheres were added into the 96-well plate after dilution. The standard and the samples to be measured were added, and incubated overnight at 4° C. The next day, the supernatant was discarded and 50 μL GM-CSF, TNF-α, IL-1β and IL-6 antibodies were added to each well. After being rinsed for 4 times, the 96-well plate was placed in a shaking table, which was in ambient temperature, to keep the plate away from light for 1 hour. […]

[1] = test system: Actinomyces viscosus (A. v) ATCC 27044; assay: MIC by broth micro-dilution against Actinomyces viscosus; assay type: cell-based; conditions: 37 °C, 18-24 h, no unit in table, dilution series 250-0.12 mg/L (ceiling 250 ppm)
Procedure: A single colony was picked from the Trypticase Digested Soybean peptone agar blood plate (TSA5B) of ordinarily stored bacteria species and used to inoculate corresponding broth culture medium, which was cultivated in a microaerobic environment (P.g needs anaerobic cultivation) with 95% air, 5% CO2 at 37.0° C.±1.0° C., […] Then corresponding broth cultivate medium was used to adjust the turbidity of the bacteria suspension to 0.5^# McFarland standard, equivalent to 1.0×10^8 CFU/mL.
(§3) The operating steps were:
(§4) a. Preparation of the stock solution of antibacterial pharmaceutical: 1% stock solution of various antibacterial pharmaceuticals was prepared with 100% pure ethanol as solvent. The prepared stock solution was filtered to eliminate bacteria, and was distributed into small portions to be used.
(§5) b. Range of measured concentration: the present experiment used 250 ppm as the ceiling measured concentration of the anti-bacterial pharmaceutical.
(§6) c. Measuring method: micro-dilution method. […]
(§7) The bacteria to be tested and standard bacteria were prepared as above. […] 0.12 mg/L, and the final inoculation quantity was about […] or 5×10^6 bacteria in each well. […]

[2] = test system: Streptococcus mutans (S. m) ATCC 25175; assay: MIC by broth micro-dilution against Streptococcus mutans; assay type: cell-based; conditions: 37 °C, 18-24 h, no unit in table, dilution series 250-0.12 mg/L (ceiling 250 ppm)
Procedure: (§8) A single colony was picked from the Trypticase Digested Soybean peptone agar blood plate (TSA5B) of ordinarily stored bacteria species and used to inoculate corresponding broth culture medium, which was cultivated in a microaerobic environment (P.g needs anaerobic cultivation) with 95% air, 5% CO2 at 37.0° C.±1.0° C., wherein S.m was cultivated for 18-24 h, and the remaining two species were cultivated for 40-48 h. Then corresponding broth cultivate medium was used to adjust the turbidity of the bacteria suspension to 0.5^# McFarland standard, equivalent to 1.0×10^8 CFU/mL.
as §3, §4, §5, §6, §7

IL-6 = assay: LUMINEX analysis of IL-6 in KB cell supernatant; assay type: cell-based, human; conditions: concentration not given
Procedure: as §1, §2

[3] = test system: Porphyromonas gingivalis (P. g) ATCC 33277; assay: MIC by broth micro-dilution against Porphyromonas gingivalis; assay type: cell-based; conditions: anaerobic, 37 °C, 18-24 h, no unit in table, dilution series 250-0.12 mg/L (ceiling 250 ppm)
Procedure: as §8, §3, §4, §5, §6, §7

IL-1β = assay: LUMINEX analysis of IL-1β in KB cell supernatant; assay type: cell-based, human; conditions: concentration not given
Procedure: as §1, §2

GM-CSF = assay: LUMINEX analysis of GM-CSF in KB cell supernatant; assay type: cell-based, human; conditions: concentration not given
Procedure: as §1, §2

`Oc1cc(Cl)ccc1Oc1ccc(Cl)cc1Cl` [Triclosan] was tested, and the “anti-inflammatory effect, TNF-α (the larger the value, the stronger the anti-inflammatory ability)” value (TNF-α) was 81%, the “minimum inhibitive concentration (MIC), A. v ATCC 27044” value [1] was 3.9 and the “minimum inhibitive concentration (MIC), S. m ATCC 25175” value [2] was 3.9. For the same compound, the “anti-inflammatory effect, IL-6 (the larger the value, the stronger the anti-inflammatory ability)” value (IL-6) was 31%, the “minimum inhibitive concentration (MIC), P. g ATCC 33277” value [3] was 7.8 and the “anti-inflammatory effect, IL-1β (the larger the value, the stronger the anti-inflammatory ability)” value (IL-1β) was 7%. The “anti-inflammatory effect, GM-CSF (the larger the value, the stronger the anti-inflammatory ability)” value (GM-CSF) was 5%.
